Laboratory results: ChEMBL document CHEMBL1201862, “PubChem BioAssay data set” (2004)
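Five concentrations, 48 hours, 96-well plates. GI50 is the concentration that inhibits growth by half.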 Active and inactive are the calls of the source. Rule as the data show it: active = GI50 up to about 1.1 µM and inactive = higher.

Legend:
Assay in all cases: NCI tumour cell line growth inhibition, 48 h
[1] = tested on: Malme-3M
[2] = tested on: OVCAR-5
[3] = tested on: MDA-N
[4] = tested on: EKVX
[5] = tested on: NCI-H460
[6] = tested on: HCT-116
[7] = tested on: PC-3
[8] = tested on: SK-MEL-28
[9] = tested on: T47D
[10] = tested on: 786-0
[11] = tested on: CCRF-CEM
[12] = tested on: KM12
[13] = tested on: ACHN
[14] = tested on: MDA-MB-231
[15] = tested on: HCC 2998
[16] = tested on: HT-29
[17] = tested on: SNB-78
[18] = tested on: CAKI-1
[19] = tested on: SF-539

| Compound | GI50 [1] | GI50 [2] | GI50 [3] | GI50 [4] | GI50 [5] | GI50 [6] | GI50 [7] | GI50 [8] | GI50 [9] | GI50 [10] | GI50 [11] | GI50 [12] | GI50 [13] | GI50 [14] | GI50 [15] | GI50 [16] | GI50 [17] | GI50 [18] | GI50 [19] |
| --- | --- | --- | --- | --- | --- | --- | --- | --- | --- | --- | --- | --- | --- | --- | --- | --- | --- | --- | --- |
| N=C(Nc1nc(-c2ccccn2)cc2ccccc12)c1ccccn1 | 157 nM (active) | 14.8 nM (active) | 272 nM (active) | 22.1 nM (active) | 85.7 nM (active) | 10 nM (active) | < 12.9 nM (active) | 252 nM (active) | 24.4 nM (active) | 31.7 nM (active) | 10 nM (active) | 49 nM (active) | < 14.5 nM (active) | < 17.9 nM (active) | 117 nM (active) | 10 nM (active) | 3330 nM (inactive) | < 12.3 nM (active) | 97 nM (active) |
| COC(=O)[C@H]1N[C@@H](C(=O)OC)C23CCC[C@H]2CC[C@]1(C(OC)OC)C3 | > 100000 nM (inactive) | > 100000 nM (inactive) | – | > 100000 nM (inactive) | > 100000 nM (inactive) | > 100000 nM (inactive) | – | > 100000 nM (inactive) | – | 81100 nM (inactive) | > 100000 nM (inactive) | > 100000 nM (inactive) | > 100000 nM (inactive) | – | > 100000 nM (inactive) | > 100000 nM (inactive) | > 100000 nM (inactive) | > 100000 nM (inactive) | > 100000 nM (inactive) |
